“Also recorded” adds a separate entry of the source.
How the values were obtained:
[1] = test system: patients with type 2 diabetes; assay: Randomized, double-blind, placebo-controlled clinical trial: subcutaneous beinaglutide before meals in combination with oral metformin, 12-week treatment; assay type: in vivo, human
Protocol: The inclusion criteria (if any) are as follows: Type 2 diabetic patients that met the World Health Organization's diagnostic criteria for type 2 diabetes (WHO, 1999) who received oral metformin treatment at dosages 1,000 mg/d that had stabilized for at least 3 months without treatment-related adverse events (e.g., vomiting) and voluntarily signed informed consent and with the following criteria:
In a randomized, double-blind, placebo-controlled clinical trial, 42 patients with type 2 diabetes treated with metformin monotherapy were randomly divided into a treatment group and a control group, with 21 cases in each group. All patients received metformin (Glucophage, purchased from Bristol-Myers Squibb) with original dosages. 200 μg of beinaglutide (from Benemae, treatment group) or a placebo (Benemae, control group) were administered to patients by one-time subcutaneous injection before each of three meals (600 μg/d) and followed up after a 12-week treatment.
Glycated hemoglobin (HbA1c), fasting blood glucose, 2 h postprandial blood glucose, BMI, and other effectiveness indicators were measured.

[2] = test system: obese and overweight patients with type 2 diabetes; assay: Beinaglutide dosing regimen (continuous subcutaneous pump plus pre-meal doses), alone or with metformin / insulin glargine, one month; assay type: in vivo, human
Protocol: The beinaglutide dosing regimen included 1) a continuous subcutaneous administration of beinaglutide at 12.5 μg/h (300 μg/d) via a subcutaneous pump, 2) a one-time subcutaneous administration of beinaglutide at a dose of 100 μg 5 min before each of the three meals a day, and 3) optional administration of insulin glargine and/or metformin.
The patients treated were overweight/obesity in short disease course of type 2 diabetes. Two patients were female, and four patients were male. The patients were 30 to 55 years old with a course of disease between 0 and 5 years with glycated hemoglobin between 9% and 12%, and BMI between 26 and 30 kg/m^2.
Three patients were treated with beinaglutide monotherapy. Three patients were treated with a combinational therapy of beinaglutide and one or two third active ingredients (metformin, or metformin and glargine). Glycated hemoglobin (HbA1c) and weight were measured.
The patients were treated with the beinaglutide dosing regimen described herein, either alone or in combination with one or more third active ingredients. Some patients were treated with insulin (daily dosage of 0.5 u/kg) pump treatment alone or in combination with metformin (0.5 g tid) for a week right before starting the beinaglutide treatment.

[3] = treatment group, after 12 weeks beinaglutide 600 μg/d s.c. + metformin
[4] = Patient 2: insulin (0.5 u/kg) 1 week, then beinaglutide regimen + metformin (0.5 g tid) 1 month

Substance: His-Ala-Glu-Gly-Thr-Phe-Thr-Ser-Asp-Val-Ser-Ser-Tyr-Leu-Glu-Gly-Gln-Ala-Ala-Lys-Glu-Phe-Ile-Ala-Trp-Leu-Val-Lys-Gly-Arg [beinaglutide]
- BMI, treatment group versus control group ([1]; 12 weeks, P>0.05): no statistic differences between the two groups
- Postprandial blood glucose decreased by ([1]; 2 h postprandial, treatment group, beinaglutide 600 μg/d s.c. + metformin, 12 weeks, P<0.01): 4.18 mmol/L
- HbA1c decreased by ([1]; treatment group (21 cases), metformin at original dosage + beinaglutide 200 μg s.c. before each of three meals (600 μg/d), 12 weeks, P<0.01): 1.17%
- HbA1c and fasting blood glucose post-treatment versus control group ([1]; treatment group vs placebo + metformin, 12 weeks, P<0.05): even more significant decrease comparing with control group
- HbA1c and fasting blood glucose post-treatment versus pre-treatment ([1]; treatment group, 12 weeks beinaglutide 600 μg/d + metformin): significant decrease comparing with the pre-treatment indicators
- BMI change after treatment ([1]; treatment group, 12 weeks, P<0.05 (control group also decreased)): significant decrease in BMI
- HbA1c post-treatment ([1]; treatment group, after 12 weeks beinaglutide 200 μg s.c. before each of three meals + metformin): 6.8%
- Fasting blood glucose post-treatment [1, 3]: 7.45 mmol/L
- Postprandial blood glucose post-treatment [1, 3]: 11.02 mmol/L
- Fasting blood glucose pre-treatment ([1]; treatment group, baseline): 9.43 mmol/L
- Postprandial blood glucose pre-treatment ([1]; treatment group, baseline): 15.2 mmol/L
- HbA1c pre-treatment ([1]; treatment group, baseline before beinaglutide 600 μg/d + metformin): 7.97%
- Fasting blood glucose decreased by ([1]; treatment group, beinaglutide 600 μg/d s.c. + metformin, 12 weeks): 1.98 mmol/L
- Body weight pre-treatment ([2]; Patient 1, baseline): 61 kg
- HbA1c pre-treatment ([2]; Patient 1, baseline): 9.4%
- Body weight post-treatment ([2]; Patient 1: insulin (0.5 u/kg) + metformin (0.5 g tid) 1 week, then beinaglutide monotherapy (12.5 μg/h continuous s.c. + 100 μg before each of three meals) 1 month): 57.5 kg
- Body weight pre-treatment ([2]; Patient 2, baseline): 99 kg
- HbA1c pre-treatment ([2]; Patient 2, baseline): 8.8%
- Body weight post-treatment [2, 4]: 93 kg
- HbA1c post-treatment [2, 4]: 6.3%
- Body weight pre-treatment ([2]; Patient 3, baseline): 88 kg
- HbA1c pre-treatment ([2]; Patient 3, baseline): 12.3%
- Body weight post-treatment ([2]; Patient 3: insulin (0.5 u/kg) 1 week, then beinaglutide regimen + metformin (0.5 g tid) 1 month): 83 kg
- Body weight pre-treatment ([2]; Patient 4, baseline): 80 kg
- HbA1c pre-treatment ([2]; Patient 4, baseline): 9.3%
- Body weight post-treatment ([2]; Patient 4: insulin (0.5 u/kg) 1 week, then beinaglutide regimen + metformin (0.5 g tid) + insulin glargine (16 u s.c. before bed) 1 month): 73 kg
- Body weight pre-treatment ([2]; Patient 5, baseline): 80 kg
- HbA1c pre-treatment ([2]; Patient 5, baseline): 7.3%
- Body weight post-treatment ([2]; Patient 5: beinaglutide monotherapy (12.5 μg/h continuous s.c. + 100 μg before each of three meals) 1 month): 77 kg
- Body weight pre-treatment ([2]; Patient 6, baseline): 85 kg
- HbA1c pre-treatment ([2]; Patient 6, baseline): 9.7%
- Body weight post-treatment ([2]; Patient 6: insulin (0.5 u/kg) 1 week, then beinaglutide monotherapy (0.6 mg/d) 1 month): 78 kg
- Overall outcome on body weight and HbA1c ([2]; six patients, continuous 300 μg/d + 100 μg tid before meal, alone or with metformin or metformin and insulin glargine, one month): significant weight loss and/or HbA1c decrease; also recorded: achieved decrease in HbA1c and/or body weight
